Results from US7842698B2, “Pyridine methylene azolidinones and use thereof phosphoinositide inhibitors” (Merck Serono S.A., priority 2004, dated 2010).
Counter-ions that a name gives are not always drawn. Like-named read-outs stand apart in the source and are kept apart here.

Key:
[1] = test system: Akt/PKB phosphorylation in Raw 264-7 macrophages; assay: Cell based ELISA to monitor PI3K inhibition: Akt/PKB phosphorylation in macrophages after stimulation with Complement 5a; conditions: Mus musculus, RAW264.7, 50 nM Complement 5a for 5 minutes, inhibitors pretreated 20 minutes, phospho Serine 473 Akt, read-out: Cell Assay (P-Akt, Elisa) IC50
Protocol: b) Cell Based ELISA to Monitor PI3K Inhibition:
The efficacy of compounds of the invention in inhibiting the PI3K induced Akt/PKB phosphorylation may be tested in the following cell based assay.
Measurement of Akt/PKB phosphorylation in macrophages after stimulation with Complement 5a: Raw 264: Raw 264-7 macrophages (cultured in DMEM-F12 medium containing 10% Fetal Calf serum and antibiotics) are plated at 20′000 cells/well in a 96 MTP 24 h before cell stimulation. Previous to the stimulation with 50 nM of Complement 5a during 5 minutes, Cells are serum starved for 2 h, and pretreated with inhibitors for 20 minutes. After stimulation cells are fixed in 4% formaldehyde for 20 minutes and washed 3 times in PBS containing 1% Triton X-100 (PBS/Triton). Endogenous peroxidase is blocked by a 20 minutes incubation in 0.6% H2O2 and 0.1% Sodium Azide in PBS/Triton and washed 3 times in PBS/Triton. Cells are then blocked by 60 minutes incubation with 10% fetal calf serum in PBS/Triton. Next, phosphorylated Akt/PKB is detected by an overnight incubation at 4° C. with first antibody (anti phospho Serine 473 Akt IHC, Cell Signaling) diluted 800-fold in PBS/Triton, containing 5% bovine serum albumin (BSA). […] The reaction is stopped by addition of 50 μl of 1 M SO4H2 and absorbance is read at 450 nm. […]

[2] = target: Human recombinant GST-PI3Kγ (Homo sapiens, UniProt P48736); assay: High throughput PI3K lipid kinase assay (scintillation proximity assay, neomycin-coated SPA beads); format: biochemical; conditions: [33P]γ-ATP, 180 minutes at room temperature
Excerpt: a) High Throughput PI3K Lipid Kinase Assay (Binding Assay):
The efficacy of compounds of the invention in inhibiting the PI3K induced-lipid phosphorylation may be tested in the following binding assay.
The assay combines the scintillation proximity assay technology (SPA, Amersham) with the capacity of neomycin (a polycationic antibiotic) to bind phospholipids with high affinity and specificity. The Scintillation Proximity Assay is based on the properties of weakly emitting isotopes (such as ^3H, ^125I, ^33P). Coating SPA beads with neomycin allows the detection of phosphorylated lipid substrates after incubation with recombinant PI3K and radioactive ATP in the same well, by capturing the radioactive phospholipids to the SPA beads through their specific binding to neomycin.
To a 384 wells MTP containing 5 μl of the test compound of Formula (I) (solubilized in 6% DMSO; to yield a concentration of 100, 30, 10, 3, 1, 0.3, 0.1, 0.03, 0.01, 0.001 μM of the test compound), the following assay components are added. 1) 5 μl (58 ng) of Human recombinant GST-PI3Kγ (in Hepes 40 mM, pH 7.4, DTT 1 mM and ethyleneglycol 5%) 2) 10 μl of lipid micelles and 3) 10 μl of Kinase buffer ([^33P]γ-ATP 45 μM/60 n Ci, MgCl2 30 mM, DTT 1 mM, β-Glycerophosphate 1 mM, Na3VO4 100 μM, Na Cholate 0.3%, in Hepes 40 mM, pH 7.4). After incubation at room temperature for 180 minutes, with gentle agitation, the reaction is stopped by addition of 60 μl of a solution containing 100 μg of neomycin-coated PVT SPA beads in PBS containing ATP 10 mM and EDTA 5 mM. The assay is further incubated at room temperature for 60 minutes with gentle agitation to allow binding of phospholipids to neomycin-SPA beads. After precipitation of the neomycin-coated PVT SPA beads for 5 minutes at 1500× g, radioactive PtdIns(3)P is quantified by scintillation counting in a Wallac MicroBeta™ plate counter.
The values indicated in Table I below refer to the IC50 (nM) with respect to PI3Kγ, i.e. the amount necessary to achieve 50% inhibition of said target. Said values show a considerable inhibitory potency of thiazole compounds with regard to PI3Kγ.

phospholipases = conditions: cited from earlier work
Class I PI3-kinases = conditions: Fruman et al., 1998, cited from earlier work

Sequence of Human recombinant GST-PI3Kγ (P48736 whole entry): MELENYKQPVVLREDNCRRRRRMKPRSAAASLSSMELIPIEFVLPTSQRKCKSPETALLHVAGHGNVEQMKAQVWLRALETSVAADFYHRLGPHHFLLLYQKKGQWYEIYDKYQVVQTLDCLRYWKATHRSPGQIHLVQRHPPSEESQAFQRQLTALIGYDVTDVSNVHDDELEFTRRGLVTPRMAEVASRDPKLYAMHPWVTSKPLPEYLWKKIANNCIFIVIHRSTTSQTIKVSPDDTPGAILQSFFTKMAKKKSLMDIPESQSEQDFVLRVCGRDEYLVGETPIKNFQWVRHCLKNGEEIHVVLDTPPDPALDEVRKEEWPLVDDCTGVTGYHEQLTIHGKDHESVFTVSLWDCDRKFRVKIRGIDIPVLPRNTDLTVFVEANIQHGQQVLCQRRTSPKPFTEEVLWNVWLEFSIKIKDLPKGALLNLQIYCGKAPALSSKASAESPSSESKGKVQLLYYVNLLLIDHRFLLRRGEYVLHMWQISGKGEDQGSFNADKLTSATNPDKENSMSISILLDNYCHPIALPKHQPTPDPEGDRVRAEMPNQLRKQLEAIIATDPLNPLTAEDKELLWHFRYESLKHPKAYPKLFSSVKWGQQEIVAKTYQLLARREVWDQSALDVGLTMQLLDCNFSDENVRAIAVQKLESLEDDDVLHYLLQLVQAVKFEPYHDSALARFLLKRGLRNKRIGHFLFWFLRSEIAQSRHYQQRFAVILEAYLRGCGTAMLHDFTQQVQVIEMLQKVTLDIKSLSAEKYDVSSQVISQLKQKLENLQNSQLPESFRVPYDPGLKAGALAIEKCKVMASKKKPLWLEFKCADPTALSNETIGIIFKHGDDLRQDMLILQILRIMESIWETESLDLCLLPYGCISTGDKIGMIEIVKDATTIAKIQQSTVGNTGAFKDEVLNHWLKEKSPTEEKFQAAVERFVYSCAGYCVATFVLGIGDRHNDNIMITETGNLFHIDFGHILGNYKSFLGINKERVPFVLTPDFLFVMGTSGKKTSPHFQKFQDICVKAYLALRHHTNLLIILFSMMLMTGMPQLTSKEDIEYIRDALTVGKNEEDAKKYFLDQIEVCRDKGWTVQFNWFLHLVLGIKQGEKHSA

SMILES	IC50 [2] [nM]	other results
O=C1NC(=O)/C(=C/c2ccc3ncnc(N4CCCCC4)c3n2)S1 (as salt: potassium) [Example 1, (5Z)-5-{[4-(1-piperidinyl)pyrido[3,2-d]pyrimidin-6-yl]methylene}-1,3-thiazolidine-2,4-dione potassium salt]		melting point: 319 °C
O=C1NC(=O)/C(=C/c2ccc3ncnc(N4CCCCC4)c3n2)S1 [Example 1, (5Z)-5-{[4-(1-piperidinyl)pyrido[3,2-d]pyrimidin-6-yl]methylene}-1,3-thiazolidine-2,4-dione potassium salt]	4	IC50 [1]: < 10 nM
O=C1NC(=O)/C(=C/c2ccc3ncnc(N4CCC(C(F)(F)F)CC4)c3n2)S1 [Example 3, (5Z)-5-({4-[4-(trifluoromethyl)-1-piperidinyl]pyrido[3,2-d]pyrimidin-6-yl}methylene)-1,3-thiazolidine-2,4-dione potassium salt]	6	IC50 [1]: < 10 nM
O=C1NC(=O)/C(=C/c2ccc3nccnc3n2)S1 [Example 4, 5-Pyrido[2,3-b]pyrazin-6-ylmethylene-thiazolidine-2,4-dione]	20	
O=C1NC(=O)/C(=C/c2ccc3occc3n2)S1 [Example 5, 5-Furo[3,2-b]pyridin-5-ylmethylene-thiazolidine-2,4-dione]	35	
O=C1NC(=S)SC1=Cc1ccc2ncnc(N3CCC(F)CC3)c2n1 [Example 6, 5-[4-(4-Fluoro-piperidin-1-yl)-pyrido[3,2-d]pyrimidin-6-ylmethylene]-2-thioxo-thiazolidin-4-one]	2	
COc1cc(OC)cc(-n2cnc3ccc(/C=C4\SC(=O)NC4=O)nc32)c1 [Example 8, (5Z)-5-{[3-(3,5-dimethoxyphenyl)-3H-imidazo[4,5-b]pyridin-5-yl]methylene}-1,3-thiazolidine-2,4-dione]	10	
CN(C)CCCC(=O)N1CCc2cc(-n3cnc4ccc(/C=C5\SC(=O)NC5=O)nc43)ccc21 [Example 12, (5Z)-5-[(3-{1-[4-(dimethylamino)butanoyl]-2,3-dihydro-1H-indol-5-yl}-3H-imidazo[4,5-b]pyridin-5-yl)methylene]-1,3-thiazolidine-2,4-dione]	7	
O=c1cc(N2CCOCC2)oc2c(-c3ccccc3)cccc12 [LY294002]		inhibitory activity on phospholipases (phospholipases): some inhibitory activity; IC50 (Class I PI3-kinases; LY294002, read-out: IC50 against each of these PI3-kinases (Class I)): 15000 to 20000 nM
COC[C@H]1OC(=O)c2coc3c2[C@@]1(C)C1=C(C3=O)[C@@H]2CCC(=O)[C@@]2(C)C[C@H]1OC(C)=O [wortmannin]		IC50 (Class I PI3-kinases; wortmannin, read-out: IC50 against each of the various Class I PI3-kinases): 1 to 10 nM
